Data set [1] is described as follows: Clearance in rat hepatocytes assessed per 10^6 cells. Particulars: read-out: CLH. The class given is ADME, cell-based, Hepatocyte.
A short description of data set [2]: Clearance in human hepatocytes assessed per 10^6 cells. The class given is ADME, cell-based, Hepatocyte. Particulars: read-out: CLH.

Results on 13 compounds are retold here after ChEMBL document CHEMBL2390895, “Design, synthesis and structure activity relationships of spirocyclic compounds as potent CCR1 antagonists” (Bioorg Med Chem Lett, 2013).

`O=C(NC1CC1)c1ccc(F)cc1OC[C@@H](O)CN1CCC2(CC1)Cc1cc(Cl)ccc1O2`: the values for the hepatocyte CLint in data set [1] and in data set [2] were 20 µL/min/1e6 cells and 4.6 µL/min/1e6 cells, respectively.

As to `Cc1ccc(C(=O)N2CC[C@H](O)C2)c(OC[C@@H](O)CN2CCC3(CC2)Cc2cc(F)ccc2O3)c1`, the hepatocyte CLint in data set [2] was 10 µL/min/1e6 cells.

For the compound `O=C(NC1CC1)c1ccccc1OC[C@@H](O)CN1CCC2(CC1)Cc1cc(Cl)ccc1O2`, the hepatocyte CLint in data set [1] is 45 µL/min/1e6 cells; in data set [2], 5.2 µL/min/1e6 cells.

With `O=C(NC1CC1)c1ccc(O)cc1OC[C@@H](O)CN1CCC2(CC1)Cc1cc(Cl)ccc1O2`, the hepatocyte CLint in data set [1] was found to be 28 µL/min/1e6 cells; in data set [2], 10.6 µL/min/1e6 cells.

Take `O=C(c1cc(Cl)c(O)cc1OC[C@@H](O)CN1CCC2(CC1)Cc1cc(Cl)ccc1O2)N1CC[C@H](O)C1`: the figures for the hepatocyte CLint in data set [1] and in data set [2] were 8.1 µL/min/1e6 cells and under 3 µL/min/1e6 cells, respectively.

As to `O=C(c1ccc(O)cc1OC[C@@H](O)CN1CCC2(CC1)Cc1cc(Cl)ccc1O2)N1CC[C@H](O)C1`, the hepatocyte CLint was 6.7 µL/min/1e6 cells in data set [1] and under 3 µL/min/1e6 cells in data set [2].

As for `O=C(c1ccc(F)cc1OC[C@@H](O)CN1CCC2(CC1)Cc1cc(Cl)ccc1O2)N1CC[C@H](O)C1`, the hepatocyte CLint in data set [1] is under 4 µL/min/1e6 cells; in data set [2] it was 6.8 µL/min/1e6 cells.

Regarding `CNC(=O)c1ccc(O)cc1OC[C@@H](O)CN1CCC2(CC1)Cc1cc(F)ccc1O2`, the hepatocyte CLint stood at 22 µL/min/1e6 cells in data set [1] and 26 µL/min/1e6 cells in data set [2].

With `COc1ccc(C(=O)NC2CC2)c(OC[C@@H](O)CN2CCC3(CC2)Cc2cc(Cl)ccc2O3)c1`, in data set [2], the hepatocyte CLint amounted to 15 µL/min/1e6 cells.

With `CNC(=O)c1ccc(O)cc1OC[C@@H](O)CN1CCC2(CC1)Cc1cc(Cl)ccc1O2`, the hepatocyte CLint is 33 µL/min/1e6 cells in data set [1] and under 4.6 µL/min/1e6 cells in data set [2].

Turning to `Cc1ccc(C(=O)N2CC[C@H](O)C2)c(OC[C@@H](O)CN2CCC3(CC2)Cc2cc(Cl)ccc2O3)c1`, the hepatocyte CLint in data set [2] worked out at 11 µL/min/1e6 cells.

Take `O=C(c1ccc(O)cc1OC[C@@H](O)CN1CCC2(CC1)Cc1cc(Cl)ccc1O2)N1CCCC1`: the figures for the hepatocyte CLint in data set [1] and in data set [2] were 23 µL/min/1e6 cells and 9.6 µL/min/1e6 cells, respectively.

For the compound `O=C(c1ccc(O)cc1OC[C@@H](O)CN1CCC2(CC1)Cc1cc(Cl)ccc1O2)N1CCCCC1`, the hepatocyte CLint in data set [2] is 14 µL/min/1e6 cells.
